Results published in article PMC2670245 (Bioorganic & medicinal chemistry, 2008).
“Also recorded” adds a separate entry of the source.

Tests used:
[1] = target: 5-HT4; details: read-out: Ki 5-HT4; cited from earlier work
[2] = target: 5-HT3; details: read-out: Ki 5-HT3; cited from earlier work
[3] = test system: MDA-MB435 cells; assay: colony formation; format: cell-based, human
[4] = test system: EMT-6 cells; assay: colony formation; format: cell-based, mouse
[5] = test system: Panc-02; details: cited from earlier work
[6] = target: T1, σ2 receptor (Rattus norvegicus, UniProt Q5U3Y7); assay: σ2 receptor competitive binding with [^3H]RHM-1; details: Ki of σ1/σ2 ratio
T1 sequence (Q5U3Y7 1-176): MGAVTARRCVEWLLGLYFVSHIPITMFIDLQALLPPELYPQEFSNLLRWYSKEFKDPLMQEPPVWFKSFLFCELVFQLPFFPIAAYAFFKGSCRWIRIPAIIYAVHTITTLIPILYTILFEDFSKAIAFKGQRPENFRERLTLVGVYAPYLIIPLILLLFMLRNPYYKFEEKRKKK

Structure (SMILES): COc1ccc(C)cc1NC(=O)OC1CC2CCCC(C1)N2Cc1ccccc1 (centres unmarked) [Compound 6, 9-Benzyl-9-azabicyclo[3.3.1]nonan-3-yl-2-methoxy-5-methylphenylcarbamate]
- Ki [1]: > 1000 nM
- Ki [2]: > 1000 nM

Structure (SMILES): COc1cccc2c1C(=O)c1c(O)c3c(c(O)c1C2=O)C[C@@](O)(C(=O)CO)C[C@@H]3O[C@H]1C[C@H](N)[C@H](O)[C@H](C)O1 [DOX, doxorubicin, reference compound]
- tumor cell kill as single agent ([3]; MDA-MB435, DOX <20 μM, 24 h): no tumor cell kill
- tumor cell kill as single agent ([4]; EMT-6, DOX <20 μM, 24 h): no tumor cell kill

Structure (SMILES): COc1ccc(C)cc1NC(=O)OC1CC2CCCC(C1)N2Cc1ccc(N(C)C)cc1 (centres unmarked) [WC-26, 9-(4-(Dimethylamino)benzyl)-9-azabicyclo[3.3.1]nonan-3-yl-2-methoxy-5-methyl-phenylcarbamate]
- apoptosis in treated tumors ([5]; flow cytometry): dose-dependent increases in apoptosis
- systemic toxicity ([5]; treated mice): no evidence of systemic toxicity
- clonogenic survival, combination with DOX compared to DOX alone ([3]; MDA-MB435, 2 μM WC-26 16 h, then range of DOX concentrations added for 24 h): large decrease in clonogenic survival
- cell kill as single agent ([3]; MDA-MB435, 2 μM WC-26 alone, 40 h): no measureable cell kill; also recorded: no tumor cell kill
- clonogenic survival, combination with DOX compared to DOX alone ([4]; EMT-6, 2 μM WC-26 16 h, then range of DOX concentrations added for 24 h): large decrease in clonogenic survival
- cell kill as single agent ([4]; EMT-6, 2 μM WC-26 alone, 40 h): no measureable cell kill; also recorded: no tumor cell kill

Structure (SMILES): COc1ccc(C)cc1NC(=O)OC1CC2CCCC(C1)N2Cc1ccc(CCF)cc1 (centres unmarked) [WC-59, 9-(4-(2-Fluoroethyl)benzyl)-9-azabicyclo[3.3.1]nonan-3-yl-2-methoxy-5-methyl-phenylcarbamate]
- σ1/σ2 (Ki ratio) [6]: 2,087
